pEC50: −log10 of the molar value. In brackets after ≈: the same amount, converted by molar mass.
What was measured:
HIV-1 IIIB strain = assay: MT-4 HIV Wild Type Virus Infection Assay (IIIB Virus); assay type: cell-based; settings: Human immunodeficiency virus 1, IIIB, MT4, 120 h, MT-4 cells acutely infected with HIV-1 IIIB, 5 day incubation, Cell-titer glo
In short: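 MT-4 cells at 2×10^6 cells/ml in RPMI/10% FBS were acutely infected with HIV-1 IIIB for 1 h at 37° C, diluted 25× and added to serially diluted compounds. After 5 days at 37° C, viability read by CellTiter-Glo luminescence; EC50 from dose-response curves.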

[1] = target: bovine intestinal alkaline phosphatase (Bos taurus (Bovine), UniProt P19111); assay: BiALP: conversion by bovine intestinal alkaline phosphatase; assay type: in vitro ADME; settings: 2 μM substrate, 100 ng/mL iALP, Tris pH 7.8, 37° C., 60 minutes
In short: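 LC-MS (positive mode) quantified analyte/internal-standard peak area ratios, referenced to 2 μM parent product. This followed a 60 min, 37° C reaction of 2 μM substrate in Tris buffer pH 7.8 (1 mM MgCl2, 1 mM ZnCl2) containing 100 ng/mL iALP or buffer alone, run in triplicate.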

PBS Stability Assay = assay type: physicochemical; settings: buffer, pH 7.4, 2 μM, phosphate buffered saline pH 7.4; read-out: PBS T½
In short: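 Half-life derives from first-order exponential decline of % compound remaining, quantified by LC-MS analyte/internal-standard peak-area ratio. Compound (2 μM final) sat in pH 7.4 phosphate-buffered saline, with aliquots quenched into acidified acetonitrile containing labetalol from 0 to 120 min.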

Solubility in FaSSIF = settings: 23 °C, pH 6.5, fassif, thermodynamic from solid
In short: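 Concentration measured by HPLC-UV after solid compound was dosed at 5 mg/mL into pH 6.5 fasted-state simulated intestinal fluid containing taurocholate and lecithin (4:1 molar) and vortexed.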

bovine intestinal alkaline phosphatase, sequence (P19111 20-506): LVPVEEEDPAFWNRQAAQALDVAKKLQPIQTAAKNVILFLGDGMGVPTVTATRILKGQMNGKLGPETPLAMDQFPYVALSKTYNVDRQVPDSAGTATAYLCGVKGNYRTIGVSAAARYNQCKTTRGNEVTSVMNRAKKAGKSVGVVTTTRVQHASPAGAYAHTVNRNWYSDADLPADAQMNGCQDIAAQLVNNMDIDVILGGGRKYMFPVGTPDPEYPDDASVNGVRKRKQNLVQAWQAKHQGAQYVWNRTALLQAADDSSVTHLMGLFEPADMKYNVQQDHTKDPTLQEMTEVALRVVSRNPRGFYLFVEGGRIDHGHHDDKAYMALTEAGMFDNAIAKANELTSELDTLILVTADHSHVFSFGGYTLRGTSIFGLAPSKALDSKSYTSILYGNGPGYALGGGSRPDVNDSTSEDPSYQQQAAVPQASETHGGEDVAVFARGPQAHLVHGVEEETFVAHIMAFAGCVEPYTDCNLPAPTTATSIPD

Structure (SMILES) | pEC50 (HIV-1 IIIB strain) | [Compound] [1] | half-life at 2 μM (PBS Stability Assay) | solubility at 2 h (Solubility in FaSSIF)
COC(=O)N[C@H](C(=O)N[C@@H](Cc1ccc(C#Cc2cnc(N3CC4CCC(C3)N4C3COC3)nc2)cc1)[C@H](CN(Cc1c(F)cc(-c2ccn(C(F)F)n2)cc1F)NC(=O)[C@@H](NC(=O)OC)C(C)(C)C(F)(F)F)OC(=O)CC(C)(C)c1c(CC(=O)Nc2ccc(S(=O)(=O)O)cc2)cc(C)cc1OP(=O)(O)O)C(C)(C)C(F)(F)F [Example 90] | 7.00 | 1746 nM | 5.46 h | 4240 µg/mL (≈ 2590 µM)
COC(=O)N[C@H](C(=O)N[C@@H](Cc1ccc(C#Cc2cnc(N3CC4CCC(C3)N4C3COC3)nc2)cc1)[C@H](CN(Cc1c(F)cc(-c2ccn(C(F)F)n2)cc1F)NC(=O)[C@@H](NC(=O)OC)C(C)(C)C(F)(F)F)OC(=O)CC(C)(C)c1c(CC(=O)NCCCC(=O)O)cc(C)cc1OP(=O)(O)O)C(C)(C)C(F)(F)F [Example 91] | 7.22 | 2153.3 nM | 6.49 h | < 1000 µg/mL
COC(=O)N[C@H](C(=O)N[C@@H](Cc1ccc(C#Cc2cnc(N3CC4CCC(C3)N4C3COC3)nc2)cc1)[C@H](CN(Cc1c(F)cc(-c2ccn(C(F)F)n2)cc1F)NC(=O)[C@@H](NC(=O)OC)C(C)(C)C(F)(F)F)OC(=O)CC(C)(C)c1c(CC(=O)N[C@H](CCC(=O)O)C(=O)O)cc(C)cc1OP(=O)(O)O)C(C)(C)C(F)(F)F [Example 92] | 7.43 | 1771.4 nM | 5.95 h | 3660 µg/mL (≈ 2270 µM)
COC(=O)N[C@H](C(=O)N[C@@H](Cc1ccc(C#Cc2cnc(N3CC4CCC(C3)N4C3COC3)nc2)cc1)[C@H](CN(Cc1c(F)cc(-c2ccn(C(F)F)n2)cc1F)NC(=O)[C@@H](NC(=O)OC)C(C)(C)C(F)(F)F)OC(=O)CC(C)(C)c1c(CC(=O)N(C)CCCC(=O)O)cc(C)cc1OP(=O)(O)O)C(C)(C)C(F)(F)F [Example 93] | 7.25 | 1917.5 nM | 2.77 h | < 1000 µg/mL
COC(=O)N[C@H](C(=O)N[C@@H](Cc1ccc(C#Cc2cnc(N3CC4CCC(C3)N4C3COC3)nc2)cc1)[C@H](CN(Cc1c(F)cc(-c2ccn(C(F)F)n2)cc1F)NC(=O)[C@@H](NC(=O)OC)C(C)(C)C(F)(F)F)OC(=O)CC(C)(C)c1c(CC(=O)N(C)CCC(=O)O)cc(C)cc1OP(=O)(O)O)C(C)(C)C(F)(F)F [Example 94] | 7.23 | 1912 nM | 3.72 h | 1580 µg/mL (≈ 1010 µM)
COC(=O)N[C@H](C(=O)N[C@@H](Cc1ccc(C#Cc2cnc(N3CC4CCC(C3)N4C3COC3)nc2)cc1)[C@H](CN(Cc1c(F)cc(-c2ccn(C(F)F)n2)cc1F)NC(=O)[C@@H](NC(=O)OC)C(C)(C)C(F)(F)F)OC(=O)CC(C)(C)c1c(CC(=O)N(C)CC(=O)O)cc(C)cc1OP(=O)(O)O)C(C)(C)C(F)(F)F [Example 95] | 7.00 | 1927.5 nM | 4.22 h | 4260 µg/mL (≈ 2740 µM)
CC[C@H](C)[C@H](NC(=O)Cc1cc(C)cc(OP(=O)(O)O)c1C(C)(C)CC(=O)O[C@@H](CN(Cc1c(F)cc(-c2ccn(C(F)F)n2)cc1F)NC(=O)[C@@H](NC(=O)OC)C(C)(C)C(F)(F)F)[C@H](Cc1ccc(C#Cc2cnc(N3CC4CCC(C3)N4C3COC3)nc2)cc1)NC(=O)[C@@H](NC(=O)OC)C(C)(C)C(F)(F)F)C(=O)O [Example 96] | 6.25 | 2114.6 nM | 4.33 h | 1840 µg/mL (≈ 1150 µM)
COC(=O)N[C@H](C(=O)N[C@@H](Cc1ccc(C#Cc2cnc(N3CC4CCC(C3)N4C3COC3)nc2)cc1)[C@H](CN(Cc1c(F)cc(-c2ccn(C(F)F)n2)cc1F)NC(=O)[C@@H](NC(=O)OC)C(C)(C)C(F)(F)F)OC(=O)CC(C)(C)c1c(CC(=O)N(C)[C@@H](C)C(=O)O)cc(C)cc1OP(=O)(O)O)C(C)(C)C(F)(F)F [Example 97] | 6.69 | 1772.9 nM | 4.64 h | 4660 µg/mL (≈ 2970 µM)
COC(=O)N[C@H](C(=O)N[C@@H](Cc1ccc(C#Cc2cnc(N3CC4CCC(C3)N4C3COC3)nc2)cc1)[C@H](CN(Cc1c(F)cc(-c2ccn(C(F)F)n2)cc1F)NC(=O)[C@@H](NC(=O)OC)C(C)(C)C(F)(F)F)OC(=O)CC(C)(C)c1c(CC(=O)N[C@@H](C)C(=O)O)cc(C)cc1OP(=O)(O)O)C(C)(C)C(F)(F)F [Example 98] | 7.19 | 1320.1 nM | 6.47 h | 4280 µg/mL (≈ 2750 µM)
COC(=O)N[C@H](C(=O)N[C@@H](Cc1ccc(C#Cc2cnc(N3CC4CCC(C3)N4C3COC3)nc2)cc1)[C@H](CN(Cc1c(F)cc(-c2ccn(C(F)F)n2)cc1F)NC(=O)[C@@H](NC(=O)OC)C(C)(C)C(F)(F)F)OC(=O)CC(C)(C)c1c(CC(=O)N[C@@H](CC(C)C)C(=O)O)cc(C)cc1OP(=O)(O)O)C(C)(C)C(F)(F)F [Example 99] | 6.43 | 1928.8 nM | 7.45 h | 1880 µg/mL (≈ 1180 µM)
COC(=O)N[C@H](C(=O)N[C@@H](Cc1ccc(C#Cc2cnc(N3CC4CCC(C3)N4C3COC3)nc2)cc1)[C@H](CN(Cc1c(F)cc(-c2ccn(C(F)F)n2)cc1F)NC(=O)[C@@H](NC(=O)OC)C(C)(C)C(F)(F)F)OC(=O)CC(C)(C)c1c(CC(=O)NCCOP(=O)(O)O)cc(C)cc1OP(=O)(O)O)C(C)(C)C(F)(F)F [Example 100, (5S,10S,11S,14S)-8-(4-(1-(difluoromethyl)-1H-pyrazol-3-yl)-2,6-difluorobenzyl)-11-(4-((2-(8-(oxetan-3-yl)-3,8-diazabicyclo[3.2.1]octan-3-yl)pyrimidin-5-yl)ethynyl)benzyl)-3,6,13,16-tetraoxo-5,14-bis(1,1,1-trifluoro-2-methylpropan-2-yl)-2,17-dioxa-4,7,8,12,15-pentaazaoctadecan-10-yl 3-methyl-3-(4-methyl-2-(2-oxo-2-((2-(phosphonooxy)ethyl)amino)ethyl)-6-(phosphonooxy)phenyl)butanoate] | 7.37 | 1103.4 nM | 5.22 h | 4450 µg/mL (≈ 2770 µM)
COC(=O)N[C@H](C(=O)N[C@@H](Cc1ccc(C#Cc2cnc(N3CC4CCC(C3)N4C3COC3)nc2)cc1)[C@H](CN(Cc1c(F)cc(-c2ccn(C(F)F)n2)cc1F)NC(=O)[C@@H](NC(=O)OC)C(C)(C)C(F)(F)F)OC(=O)CC(C)(C)c1c(CC(=O)N[C@H]2C[C@H](C(=O)O)C2)cc(C)cc1OP(=O)(O)O)C(C)(C)C(F)(F)F [Example 101] | 7.22 | 1688.4 nM | 8.09 h | 1520 µg/mL (≈ 964 µM)
COC(=O)N[C@H](C(=O)N[C@@H](Cc1ccc(C#Cc2cnc(N3CC4CCC(C3)N4C3COC3)nc2)cc1)[C@H](CN(Cc1c(F)cc(-c2ccn(C(F)F)n2)cc1F)NC(=O)[C@@H](NC(=O)OC)C(C)(C)C(F)(F)F)OC(=O)CC(C)(C)c1c(CC(=O)N[C@H]2C[C@@H](C(=O)O)C2)cc(C)cc1OP(=O)(O)O)C(C)(C)C(F)(F)F [Example 102] | 7.27 | 1966.3 nM | 7.78 h | 2860 µg/mL (≈ 1810 µM)
COC(=O)N[C@H](C(=O)N[C@@H](Cc1ccc(C#Cc2cnc(N3CC4CCC(C3)N4C3COC3)nc2)cc1)[C@H](CN(Cc1c(F)cc(-c2ccn(C(F)F)n2)cc1F)NC(=O)[C@@H](NC(=O)OC)C(C)(C)C(F)(F)F)OC(=O)CC(C)(C)c1c(CC(=O)NCC(C)(C)C(=O)O)cc(C)cc1OP(=O)(O)O)C(C)(C)C(F)(F)F [Example 103] | 6.88 | 1589 nM | 5.52 h | 80 µg/mL (≈ 50.5 µM)
COC(=O)N[C@H](C(=O)N[C@@H](Cc1ccc(C#Cc2cnc(N3CC4CCC(C3)N4C3COC3)nc2)cc1)[C@H](CN(Cc1c(F)cc(-c2ccn(C(F)F)n2)cc1F)NC(=O)[C@@H](NC(=O)OC)C(C)(C)C(F)(F)F)OC(=O)CC(C)(C)c1c(CC(=O)N(CC(=O)O)CC(=O)O)cc(C)cc1OP(=O)(O)O)C(C)(C)C(F)(F)F [Example 106] | 6.12 | 1588.2 nM | 4.52 h | 3920 µg/mL (≈ 2450 µM)

— patent US20250051375A1, “ANTI-HIV COMPOUNDS” (Gilead Sciences, Inc., priority 2023, published 2025)
